{"source": "patent US7888355B2", "about": "“Compositions and methods for inhibiting growth and metastasis of melanoma” (Burnham Institute for Medical Research, priority 2007, dated 2011)", "key": {"MeWO cells": {"test_system": "MeWO cells", "test": "MeWO melanoma cell viability", "type": "cell-based, human", "protocol": "(§1) Cell lines. Mouse melanoma (SW1) and human melanoma (LU1205) cells were maintained in DMEM supplemented with 10% FBS, L-glutamine and antibiotics. The human melanoma cell lines MEWO and WM115 were maintained in RPMI supplemented with 10% FBS and antibiotics. Primary mouse melanocytes were cultured in F-12 media supplemented with 10% FBS, antibiotics, IBMX (isobuthyl-methylxantine), bovine pituitary extract, and TPA.\n(§2) Mitochondrial activity and apoptosis. Cells were exposed to the chemicals for 12-48 hours as indicated in Results. To measure changes in mitochondrial activity reflective of general cell viability, the ATPLITE ATP detection assay was used according to the manufacturer's recommendations (Perkin Elmer). Apoptosis analysis was performed by flow cytometry of PI-stained cells. The percentage of cells to the left of the diploid G0/1 peak, characteristic of hypodiploid cells that have partially lost DNA, was calculated as percentage of apoptotic cells (Bhoumik et al., PNAS 101:4222-7, 2004). Analysis of changes in Caspase 8 expression pattern was performed using immunoblot analysis.\nThe effects of CSL and AIGA on the human melanoma cell lines WM115 and MEWO were assessed. […]"}, "WM115 cells": {"test_system": "WM115 cells", "test": "WM115 melanoma cell viability", "type": "cell-based, human", "details": "WM115 cells", "protocol": "as §1, §2\nThe effects of CSL and AIGA on the human melanoma cell lines WM115 and MEWO were assessed. AIGA reduced the viability of the human melanoma cultures when added at a concentration of 0.5-2 μM (FIG. 5a and FIG. 5c) whereas CSL reduced their viability at a concentration of 0.1 μM-2 μM in WM115 cells (FIG. 5b) and 0.05 μM-2 μM in MeWO cells (FIG. 5d)."}, "SW1 mouse melanoma": {"test_system": "SW1 mouse melanoma", "test": "SW1 metastatic lesions in syngeneic C3H mice", "type": "in vivo", "details": "SW1 cells s.c. in C3H mice", "protocol": "(§3) Tumor growth and metastasis in vivo. GFP-expressing SW1 cells were trypsinized, resuspended in PBS, and injected subcutaneously (1×10^6) into the lower flank of 6 to 7-week-old mice. When tumors reached a size of about 50 mm^3, the indicated compounds (100 μL of the vehicle—10% DMSO, 70% Cremophor/ethanol (3:1), and 20% PBS and 1.0 mg/kg of celastrol or 0.5 mg/kg of the derivatives CA16, CA19) were injected i.p. every alternate day. Body weight and tumor growth were monitored every 2 days. GFP-expressing SW1 tumors were monitored in vivo on shaved mice with a light box illuminated by blue light fiber optics (Lightools Research; Encinitas, Calif.), and imaging was carried out with a digital camera (Nikon D100). Tumors were measured for up to 3 weeks. For metastases studies, LU1205 cells (1×10^6) were injected i.v. into the lateral tail vein of nude mice. At the end of the experiment, the lungs and tumors were excised and weighed. To detect metastatic lesions, lungs were fixed in formalin, embedded in paraffin and subjected to hematoxylin and eosin staining.\nTo further assess the impact of these compounds on the development of metastatic lesions, the SW1 mouse melanoma model using the syngeneic C3H strain was employed. Subcutaneous injection of SW1 cells results in tumor formation at the site of injection followed by metastasis to different sites within 6-8 weeks."}, "[1]": {"test_system": "Human melanoma LU1205 cells", "test": "LU1205 lung metastasis in nude mice", "type": "in vivo, mouse", "details": "compound every second day, analysis 60 days after injection", "protocol": "as §3\nThe effect of CSL and CSL derivatives, CA16 and CA19, on the metastatic capacity of melanoma cells was then determined. Human melanoma LU1205 cells were injected into the tail vein of nude mice, followed by administration of the compounds every second day. This approach allows monitoring of changes in the number of lesions formed on the lungs, a primary organ for tumor cell growth under this experimental approach. Analysis performed 60 days following injection determined changes in the number and size of metastatic lesions in each of the experimental groups."}, "SW1 tumors": {"test_system": "SW1 tumors", "test": "SW1 tumor growth in syngeneic C3H mice", "type": "in vivo, mouse", "details": "1 mg/kg i.p. every second day for 24 days", "protocol": "as §3\n(§4) To assess the ability of CSL and CSL derivatives to affect the tumorigenicity and metastasis of melanoma, the mouse SW1 cell lines were used in syngeneic models. Injection of SW1 melanoma cells subcutaneously into C3H mice was followed by daily injections of CSL intraperitoneally (IP). […] Briefly, SW1 cells that stably express GFP were injected s.c into C3H mice. When the tumor reached the size of 50 mm^3, the vehicle, CSL (1 mg/kg), CA16 (0.5 mg/kg) or CA19 (0.5 mg/kg) were administered i.p, every second day for a period of 24 days. Tumor size was measured at the indicated times. Data presented in FIG. 6b represents two experiments."}, "Mdm2 and p53": {"test_system": "Mdm2 and p53", "test": "Stability of short-lived proteins", "type": "cell-based", "details": "0.3-1 μM, data not shown", "excerpt": "CSL was also shown to inhibit NF-κB activation through the inhibition of IKB kinase and TAK1 activities. […] Thus, it is likely that the ability of CSL to attenuate NF-κB activity would result in increased JNK activity, which is consistent the findings herein. It is the increase in JNK activity, and consequently of its substrate c-Jun, in concert with inhibition of ATF2 activities that brings about the potent cytotoxic effects of both CSL and AIGA on melanoma cells, similar to what was previously shown for the ATF2 peptides."}, "[2]": {"test": "Tolerability of administration to mice", "type": "in vivo, mouse", "details": "daily administration, doses up to 1 mg/kg", "protocol": "as §4"}}}
{"compound": "CC(=O)Oc1c2c(c(CC=C(C)C)c3c1C(=O)C1=C[C@@H]4CC5C(C)(C)OC(C/C=C(\\C)C(=O)O)(C4=O)[C@@]15O3)OC(C)(CCC=C(C)C)C=C2", "note": "(stereo partly shown) [AIGA, Acetyl isogambogic acid]", "values": [{"measurement": "concentration at which viability was reduced", "setting": "MeWO cells", "result": "0.5 to 2", "unit": "µM"}, {"measurement": "concentration at which viability was reduced", "setting": "WM115 cells", "result": "0.5 to 2", "unit": "µM"}]}
{"compound": "CC1=C(O)C(=O)C=C2C1=CC=C1[C@@]2(C)CC[C@@]2(C)[C@@H]3C[C@](C)(C(=O)O)CC[C@]3(C)CC[C@]12C", "note": "[Celastrol]", "values": [{"measurement": "metastatic lesions", "setting": "SW1 mouse melanoma", "result": "potently exhibit the ability to inhibit large as well as small metastatic lesions, with the exception of the 1-2 mm range"}, {"measurement": "growth of large, medium and small sized lesions in the lungs", "setting": "[1]", "result": "efficient in inhibiting growth of large medium and small sized lesions in the lungs"}, {"measurement": "reduction of tumor growth", "setting": "SW1 tumors", "result": 5, "unit": "fold"}, {"measurement": "stability of short-lived proteins, including Mdm2 and p53", "setting": "Mdm2 and p53", "result": "did not affect"}, {"measurement": "toxicity or discomfort in mice", "setting": "[2]", "result": "did not result in toxicity or any noticeable discomfort"}]}
